# In US12473305B2, “Pyrazole boronic acid compound, pharmaceutical composition containing same, and uses thereof” (BEIJING SONGRUN PHARMACEUTICAL TECHNOLOGY CO., LTD., priority 2020, dated 2025):
# Where a name gives a salt, the structure may show the parent alone.
# Key:
# [1] = system: colorectal cancer cell line HCT116; assay: CellTiter-Glo tumor cell proliferation, HCT116; assay type: cell-based, human; conditions: 72 h; for IC50: CellTiter-Glo; for inhibition at 1 µM / inhibition at 10 µM: read-out: Inhibition rate HCT116 (%)
# Protocol: (§1) The effect of compounds on tumor cell proliferation was detected by CellTiter-Glo method. Human melanoma cell line A375, non-small cell lung cancer cell line A549, human lung adenocarcinoma cell line H1299, colorectal cancer cell line HCT116, liver cancer cell line HepG2 and gastric cancer cell line MGC80-3 were cultured in vitro. The cells were collected after growing to the logarithmic growth phase, centrifuged at 1000 rpm for 5 min, and suspended in an appropriate amount of medium after discarding the supernatant, and the cell concentration was adjusted to 2×10^4/mL. The cell suspension was inoculated onto the 384-well cell culture plate, with 50 μL per well. After being cultured in a cell incubator (37° C., 5% CO2) for 24 h, 5 μL of drug diluted by the cell culture medium was added into each well for the treatment group. Each drug was provided in triplicate. After 72 h incubation in the incubator, 20 μL of CellTiter-Glo was added into each well, and the relative luminescence unit (RLU) was measured with Multimode Microplate Reader Varioskan Flash (Thermo Scientific, USA) after placed at 37° C. for 20 min, and compared with the RLU of the control group. SigmaPlot 10.0 software was used to calculate the inhibition rate and IC50 value.
# [2] = system: Human melanoma cell line A375; assay: CellTiter-Glo tumor cell proliferation, A375; assay type: cell-based; conditions: 72 h; for inhibition at 1 µM / inhibition at 10 µM: Homo sapiens, A-375, read-out: Inhibition rate A375 (%)
# Protocol: as §1
# [3] = system: non-small cell lung cancer cell line A549; assay: CellTiter-Glo tumor cell proliferation, A549; assay type: cell-based, human; conditions: 72 h; for inhibition at 1 µM / inhibition at 10 µM: Homo sapiens, A549, read-out: Inhibition rate A549 (%)
# Protocol: as §1
compound,measurement,setting,value
Cc1cc(-c2cccc(NS(=O)(=O)c3cccc(C(F)(F)F)c3)c2)nn1CC(=O)N[C@@H](CC(C)C)B(O)O [Compound 26],IC50,[1],1.41 µM
same,IC50,[2]; CellTiter-Glo,2.59 µM
same,IC50,[3]; CellTiter-Glo,3.07 µM
"CC(C)C[C@H](NC(=O)Cn1nc(-c2ccccc2OS(=O)(=O)c2cccc(C(F)(F)F)c2)cc1-c1ccc(F)cc1)B(O)O [Compound 16, (R)-(1-(2-(5-(4-fluorophenyl)-3-(2-(((3-(trifluoromethyl)phenyl)sulfonyl)oxy)phenyl)-1H-pyrazol-1-yl)acetamido)-3-methylbutyl)boronic acid]",inhibition at 1 µM,"[1]; Homo sapiens, HCT-116",8.3%
same,inhibition at 10 µM,"[1]; Homo sapiens, HCT-116",93.8%
same,inhibition at 1 µM,[2],14.2%
same,inhibition at 10 µM,[2],91.9%
same,inhibition at 1 µM,[3],1.6%
same,inhibition at 10 µM,[3],36.9%
"(R)-(1-(2-(3-(N,N-diethylethoxy)phenyl)-5-phenyl-1H-pyrazol-1-yl)acetamido)isobutyl)boronic acid hydrochloride [Compound 32]",IC50,[1],0.427 µM
"CC(C)C[C@H](NC(=O)Cn1nc(-c2ccccc2OS(=O)(=O)c2cccc(C(F)(F)F)c2)cc1-c1ccc(Br)cc1)B(O)O [Compound 13, (R)-(1-(2-(5-(4-bromophenyl)-3-(2-(((3-(trifluoromethyl)phenyl)sulfonyl)oxy)phenyl)-1H-pyrazol-1-yl)acetamido)-3-methylbutyl)boronic acid]",inhibition at 1 µM,"[1]; Homo sapiens, HCT-116",8.2%
same,inhibition at 10 µM,"[1]; Homo sapiens, HCT-116",3.3%
same,inhibition at 1 µM,[2],8.1%
same,inhibition at 10 µM,[2],41.3%
same,inhibition at 1 µM,[3],4.5%
same,inhibition at 10 µM,[3],10.4%
"COc1ccc(-c2cc(-c3ccccc3OS(=O)(=O)c3cccc(C(F)(F)F)c3)nn2CC(=O)N[C@@H](CC(C)C)B(O)O)cc1 [Compound 21, (R)-(1-(2-(5-(4-methoxyphenyl)-3-(2-(((3-(trifluoromethyl)phenyl)sulfonyl)oxy)phenyl)-1H-pyrazol-1-yl)acetamido)-3-methylbutyl)boronic acid]",inhibition at 1 µM,"[1]; Homo sapiens, HCT-116",11.4%
same,inhibition at 10 µM,"[1]; Homo sapiens, HCT-116",62.2%
same,inhibition at 1 µM,[2],2%
same,inhibition at 10 µM,[2],44.1%
same,inhibition at 1 µM,[3],4.4%
same,inhibition at 10 µM,[3],6.4%
"CC(C)C[C@H](NC(=O)Cn1nc(-c2ccccc2OS(=O)(=O)c2cccc(C(F)(F)F)c2)cc1-c1cccs1)B(O)O [Compound 25, (R)-(3-methyl-1-(2-(5-(thiophen-2-yl)-3-(2-(((3-(trifluoromethyl)phenyl)sulfonyl)oxy)phenyl)-1H-pyrazol-1-yl)acetamido)butyl)boronic acid]",inhibition at 1 µM,"[1]; Homo sapiens, HCT-116",5.3%
same,inhibition at 10 µM,"[1]; Homo sapiens, HCT-116",97.2%
same,inhibition at 1 µM,[2],10.3%
same,inhibition at 10 µM,[2],97.7%
same,inhibition at 1 µM,[3],6.2%
same,inhibition at 10 µM,[3],71.2%
(R)-(3-methyl-1-(2-(3-(3-(2-(4-methylpiperazin-1-yl)ethoxy)phenyl)phenyl)-5-phenyl-1H-pyrazol-1-yl)acetamido)butyl)boronic acid hydrochloride [Compound 35],IC50,[1],0.281 µM
"CC(C)[C@H](NC(=O)CN1NC(C)(c2cccc(OCCN3CCCC3)c2)C=C1c1ccccc1)B(O)O (stereo partly drawn) [Compound 33, (R)-(3-methyl-1-(2-(5-phenyl-3-(3-(2-(pyrrolidin-1-yl)ethoxy)phenyl)-1H-pyrazol-1-yl)acetamido)isobutyl)boronic acid hydrochloride]",IC50,"[1]; Homo sapiens, HCT-116",0.925 µM
"CC(C)C[C@H](NC(=O)Cn1nc(-c2cccc(OCCN3CC(C)OC(C)C3)c2)cc1-c1ccccc1)B(O)O (stereo partly drawn) [Compound 36, ((1R)-1-(2-(3-(3-(2-(2,6-dimethylmorpholino)ethoxy)phenyl)-5-phenyl-1H-pyrazol-1-yl)acetamido)-3-methylbutyl)boronic acid hydrochloride]",IC50,"[1]; Homo sapiens, HCT-116",0.057 µM
"CC(C)[C@H](NC(=O)CN1NC(C)(c2cccc(OCCN3CCCCC3)c2)C=C1c1ccccc1)B(O)O (stereo partly drawn) [Compound 34, (R)-(3-methyl-1-(2-(5-phenyl-3-(3-(2-(piperidin-1-yl)ethoxy)phenyl)-1H-pyrazol-1-yl)acetamido)isobutyl)boronic acid hydrochloride]",IC50,"[1]; Homo sapiens, HCT-116",0.891 µM
